# Reference: paper PMC11234063, “Eugenol and lidocaine inhibit voltage-gated Na^+ channels from dorsal root ganglion neurons with different mechanisms” (Frontiers in Pharmacology, 2024)
# Values joined by “and” are separate entries in the source; they are usually repeats but may differ in a detail not shown here. Identical values can stand only once. Like-named read-outs stand apart in the source and are kept apart here.
# What was measured:
# [1] = tested on: total INa (VGSCs naturally expressed on dorsal root ganglion sensory neurons); test: Dose–response inhibition of total INa peak, whole-cell patch clamp; format: cell-based, rat
# [2] = tested on: TTX-R INa (VGSCs of DRG neurons); format: cell-based, rat
# [3] = tested on: total INa (VGSCs of DRG neurons); test: Voltage dependence of Na+ conductance activation (I-V and G-V curves), total INa; format: cell-based, rat; details: EUG 2 mM, LID 1 mM
# [4] = tested on: TTX-R INa (VGSCs of DRG neurons); test: Voltage dependence of Na+ conductance activation (I-V and G-V curves), TTX-R INa; format: cell-based, rat; details: EUG 2 mM, LID 1 mM
# [5] = tested on: total INa (VGSCs of DRG neurons); test: Steady-state inactivation, 100-ms conditioning pre-pulses, total INa; format: cell-based, rat; details: EUG 2 mM, LID 1 mM
# [6] = tested on: TTX-R INa (VGSCs of DRG neurons); format: cell-based, rat; details: EUG 2 mM, LID 1 mM
# [7] = tested on: total INa (VGSCs of DRG neurons); test: Inhibition in depolarization time series at 2 and 5 Hz, total INa; format: cell-based, rat; details: EUG 2 mM, LID 1 mM
# [8] = tested on: TTX-R INa (VGSCs of DRG neurons); format: cell-based, rat; details: EUG 2 mM, LID 1 mM; remark: listed apart in the source
# [9] = tested on: total INa (VGSCs of DRG neurons); test: Slow inactivation entry, three-pulse protocol, total INa; format: cell-based, rat
# [10] = tested on: TTX-R INa (VGSCs of DRG neurons); test: Slow inactivation entry, three-pulse protocol, TTX-R INa; format: cell-based, rat
# [11] = tested on: persistent total INa (DRG neurons); test: Persistent total INa at the end of 50-ms depolarizing pulses; format: cell-based, rat; details: EUG 2 mM, LID 1 mM
# [12] = tested on: total INa (VGSCs of DRG neurons); test: INa inactivation time constants during test pulse, total INa; format: cell-based, rat
# [13] = tested on: TTX-R INa (VGSCs of DRG neurons); format: cell-based, rat; remark: listed apart in the source
# [14] = tested on: VGSCs; set-up: method as in Clarkson et al., 1988; Sheets et al., 2010; details: 10-s conditioning pulse; ref Clarkson et al., 1988; Sheets et al., 2010; cited from earlier work
# [15] = tested on: total INa (VGSCs of DRG neurons); details: EUG 2 mM, LID 1 mM
# [16] = individual cells, during exposure to EUG 2 mM or LID 1 mM
smiles,measurement,setting,value
"CCN(CC)CC(=O)Nc1c(C)cccc1C [LID, lidocaine]",Pre-inhibition of total INa,[1]; LID at 0.5 mM,25%
same,Reversibility of inhibition after drug washout,[1]; total INa,fully reversible
same,"Dose response curves' data, Average (fractional current), LID (EUG 1.3 mM)","[1]; total INa, LID 0.1 mM in the presence of EUG 1.3 mM",0.98
same,"Dose response curves' data, Average (fractional current), LID (EUG 1.3 mM)","[1]; total INa, LID 0.3 mM in the presence of EUG 1.3 mM",0.63
same,"Dose response curves' data, Average (fractional current), LID (EUG 1.3 mM)","[1]; total INa, LID 1 mM in the presence of EUG 1.3 mM",0.45
same,"Dose response curves' data, Average (fractional current), LID (EUG 1.3 mM)","[1]; total INa, LID 3 mM in the presence of EUG 1.3 mM",0.19
same,"Dose response curves' data, Average (fractional current), LID (EUG 1.3 mM)","[1]; total INa, LID 10 mM in the presence of EUG 1.3 mM",0.08
same,Hill coefficient,"[1]; total INa, drug alone",1 and 1.02 ± 0.169
same,"Dose response curves' data, Average (fractional current)","[1]; total INa, drug at 0.001 mM",1.00
same,"Dose response curves' data, Average (fractional current)","[1]; total INa, drug at 0.03 mM",0.95
same,"Dose response curves' data, Average (fractional current)","[1]; total INa, drug at 0.1 mM",0.89
same,"Dose response curves' data, Average (fractional current)","[1]; total INa, drug at 0.3 mM",0.79
same,"Dose response curves' data, Average (fractional current)","[1]; total INa, drug at 1 mM",0.67
same,"Dose response curves' data, Average (fractional current)","[1]; total INa, drug at 3 mM",0.29
same,"Dose response curves' data, Average (fractional current)","[1]; total INa, drug at 10 mM",0.09
same,IC50,"[1]; total INa, holding −110 mV, test +20 mV, drug alone, read-out: IC50",1420 ± 169 µM
same,"Time series of INa blockade, Average (normalized current)","[1]; total INa, time 15 sec, drug exposure",0.63
same,"Time series of INa blockade, Average (normalized current)","[1]; total INa, time 20 sec, drug exposure",0.63
same,"Time series of INa blockade, Average (normalized current)","[1]; total INa, time 25 sec, drug exposure",0.63
same,"Time series of INa blockade, Average (normalized current)","[1]; total INa, time 30 sec, recovery",0.99
same,"Time series of INa blockade, Average (normalized current)","[1]; total INa, time 35 sec, recovery",1.01
same,"Time series of INa blockade, Average (normalized current)","[1]; total INa, time 40 sec, recovery",1.01
same,Hill coefficient,[2],0.67 ± 0.088
same,Reversibility of inhibition after drug washout,[2],fully reversible
same,"Dose response curves' data, Average (fractional current)",[2]; drug at 0.01 mM,0.82
same,"Dose response curves' data, Average (fractional current)",[2]; drug at 0.1 mM,0.78
same,"Dose response curves' data, Average (fractional current)",[2]; drug at 0.3 mM,0.55
same,"Dose response curves' data, Average (fractional current)",[2]; drug at 1 mM,0.38
same,"Dose response curves' data, Average (fractional current)",[2]; drug at 3 mM,0.26
same,"Dose response curves' data, Average (fractional current)",[2]; drug at 10 mM,0.06
same,"Dose response curves' data, Average (fractional current)",[2]; drug at 30 mM,0.00
same,IC50,"[2]; holding −110 mV, test +20 mV, read-out: IC50",440 ± 87 µM
same,"Time series of INa blockade, Average (normalized current)","[2]; time 15 sec, drug exposure",0.700
same,"Time series of INa blockade, Average (normalized current)","[2]; time 20 sec, drug exposure",0.688
same,"Time series of INa blockade, Average (normalized current)","[2]; time 25 sec, drug exposure",0.698
same,"Time series of INa blockade, Average (normalized current)","[2]; time 30 sec, recovery",0.954
same,"Time series of INa blockade, Average (normalized current)","[2]; time 35 sec, recovery",0.981
same,"Time series of INa blockade, Average (normalized current)","[2]; time 40 sec, recovery",1.000
same,Max slope-act,[3],5.4 ± 0.55 (n = 5) mV/e-fold
same,V1/2-act,[3],−15.6 ± 1.87 (n = 5) ns mV
same,Max slope-act in individual cells,[3]; individual cells,3.305 mV/efold and 5.718 mV/efold and 5.241 mV/efold and 6.129 mV/efold and 6.443 mV/efold
same,V1/2-act in individual cells,[3]; individual cells,-10.84 mV and -17.68 mV and -19.58 mV and -11.29 mV and -18.64 mV
same,Max slope-act,[4],7.6 ± 0.84 (n = 9) mV/e-fold
same,V1/2-act,[4],−15.3 ± 3.51 (n = 9) ns mV
same,Max slope-act in individual cells,[4]; individual cells,2.416 mV/efold and 6.095 mV/efold and 7.402 mV/efold and 6.184 mV/efold and 9.974 mV/efold and 8.405 mV/efold and 10.98 mV/efold and 7.92 mV/efold and 8.84 mV/efold
same,V1/2-act in individual cells,[4]; individual cells,2.959 mV and -9.166 mV and -6.571 mV and -19.84 mV and -6.716 mV and -25.02 mV and -21.81 mV and -25.87 mV and -25.3 mV
same,"Shift of the steady-state inactivation curve, on average",[5]; 100-ms conditioning pulse,−5 mV
same,Max slope-inact,[5],−10.2 ± 0.50 (n = 6) ns mV/e-fold
same,V1/2-inact,[5],−50.6 ± 3.04 (n = 6) mV
same,Max slope-inact in individual cells,[5]; individual cells,-10.01 mV/efold and -11.35 mV/efold and -9.163 mV/efold and -11.45 mV/efold and -10.7 mV/efold
same,V1/2-inact in individual cells,[5]; individual cells,-42.62 mV and -59.61 mV and -54.7 mV and -48.47 mV and -56.32 mV
same,"Shift of the steady-state inactivation curve, on average",[6]; 100-ms conditioning pulse,−4 mV
same,Max slope-inact,[6],−7.2 ± 1.24 (n = 9) ns mV/e-fold
same,V1/2-inact,[6],−32.6 ± 2.86 (n = 9) mV
same,Max slope-inact in individual cells,[6]; individual cells,-4.454 mV/efold and -5.078 mV/efold and -4.311 mV/efold and -4.855 mV/efold and -12.65 mV/efold and -5.321 mV/efold and -10.59 mV/efold and -13.14 mV/efold and -5.017 mV/efold
same,V1/2-inact in individual cells,[6]; individual cells,-13.3 mV and -32.45 mV and -43.07 mV and -41.77 mV and -33.88 mV and -29.54 mV and -30.3 mV and -34.82 mV and -34 mV
same,"Fractional inhibition, 2 Hz, 1st pulse",[7],0.46 ± 0.034 (n = 7)
same,"Fractional inhibition, 2 Hz, 20th pulse",[7],0.54 ± 0.044 (n = 7)
same,"Fractional inhibition, 5 Hz, 1st pulse",[7],0.47 ± 0.021 (n = 5)
same,"Fractional inhibition, 5 Hz, 20th pulse",[7],0.81 ± 0.055 (n = 5)
same,"Fractional current after blockade, 2 Hz, 1st pulse, individual cells",[7]; individual cells,0.42 and 0.6 and 0.65 and 0.46 and 0.55 and 0.48 and 0.66
same,"Fractional current after blockade, 2 Hz, 20th pulse, individual cells",[7]; individual cells,0.57 and 0.34 and 0.45 and 0.42 and 0.58 and 0.31 and 0.51
same,"Fractional current after blockade, 5 Hz, 1st pulse, individual cells",[7]; individual cells,0.73 and 0.48 and 0.51 (2×) and 0.60
same,"Fractional current after blockade, 5 Hz, 20th pulse, individual cells",[7]; individual cells,0.53 and 0.06 and 0.07 and 0.25 and 0.26
same,"Fractional inhibition, 2 Hz, 1st pulse",[8],0.40 ± 0.025 (n = 8)
same,"Fractional inhibition, 2 Hz, 20th pulse",[8],0.55 ± 0.040 (n = 8)
same,"Fractional inhibition, 5 Hz, 1st pulse",[8],0.37 ± 0.027 (n = 7)
same,"Fractional inhibition, 5 Hz, 20th pulse",[8],0.64 ± 0.054 (n = 7)
same,"Fractional current after blockade, 2 Hz, 1st pulse, individual cells",[8]; individual cells,0.58 and 0.49 and 0.64 and 0.53 and 0.56 and 0.59 and 0.67 and 0.68
same,"Fractional current after blockade, 2 Hz, 20th pulse, individual cells",[8]; individual cells,0.3 (2×) and 0.5 and 0.51 and 0.46 and 0.57 and 0.50 and 0.41
same,"Fractional current after blockade, 5 Hz, 1st pulse, individual cells",[8]; individual cells,0.55 and 0.51 and 0.68 (2×) and 0.62 and 0.69
same,"Fractional current after blockade, 5 Hz, 20th pulse, individual cells",[8]; individual cells,0.18 and 0.15 and 0.34 and 0.50 and 0.42
same,Fast inactivation entry time constant,"[9]; EUG 2 mM, LID 1 mM",25.04 ± 10.996 ms
same,Fractional current when P1 = 2 m,"[9]; EUG 2 mM, LID 1 mM",0.62 ± 0.067
same,Percent fast component (slow inactivation entry),"[9]; EUG 2 mM, LID 1 mM",59.86 ± 4.320 %
same,Slow inactivation entry time constant,"[9]; EUG 2 mM, LID 1 mM",292.87 ± 117.879 s
same,"Slow inactivation state entry kinetics of INa, individual cells",[9]; [16],84.13 and 39.12 and 7.878 and 39.45 and 54.65
same,Fast inactivation entry time constant,"[10]; EUG 2 mM, LID 1 mM",33.05 ± 11.57 ms
same,Fractional current when P1 = 2 m,"[10]; EUG 2 mM, LID 1 mM",0.76 ± 0.049
same,Percent fast component (slow inactivation entry),"[10]; EUG 2 mM, LID 1 mM",35.03 ± 6.913%
same,Slow inactivation entry time constant,"[10]; EUG 2 mM, LID 1 mM",287.01 ± 49.765 s
same,"Slow inactivation state entry kinetics of INa, individual cells",[10]; [16],210.90 and 156.80 and 90.580 and 123.40 and 113.30
same,Inhibition of persistent total INa after 50-ms depolarization,[11],fails to inhibit
same,Effect on inactivation time constants,[12],unaffected
same,Effect on inactivation time constants,[13],unaffected
same,Shift of the available curve,[14],10 mV
same,Time constant of the inhibiting effect increase with P1 duration at −70 mV,[15],709 ms and ~700 ms
